The data set can be described thus: HPLC retention time as indicator of relative hydrophobicity. Format: physicochemical. To be noted: chromatographic, Kromasil 100 C18 (4.6 mm × 40 mm, 3 μm), linear gradient 2 to 100% B over 12 min, 1 mL/min; A 0.1% aqueous TFA, B 0.1% TFA in CH3CN; used as indicator of relative hydrophobicity. The method in brief: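 Reversed-phase HPLC on Kromasil 100 C18 (4.6 × 40 mm, 3 μm), 0.1% TFA in water/acetonitrile, linear 2–100% B at 1 mL/min over 7 min (method A, UV 220 nm) or 12 min (method B). Retention time serves as relative hydrophobicity.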

SMILES strings stand for the structures. Non-standard residues stand in square brackets, D forms with d. Residues, ends and D or L forms follow the SMILES beside them. *: point of attachment. Butyryl = CCCC(=O)*

Two molecules from paper PMC9238401, “Peptide Conjugates Derived from flg15, Pep13, and PIP1 That Are Active against Plant-Pathogenic Bacteria and Trigger Plant Defense Responses” (Applied and Environmental Microbiology, 2022) can be followed below.

In the case of `CCCC(=O)NCCCC[C@H](NC(=O)[C@H](CCCCN)NC(=O)[C@H](CC(C)C)NC(=O)[C@@H](NC(=O)[C@H](CCCCN)NC(=O)[C@H](CCCCN)NC(=O)[C@@H](Cc1ccccc1)NC(=O)[C@H](CC(C)C)NC(=O)[C@H](CCCCN)NC(=O)[C@H](CCCCN)NC(=O)[C@H](Cc1c[nH]cn1)NC(=O)[C@@H](NC(=O)[C@H](Cc1c[nH]cn1)NC(=O)[C@@H](NC(=O)CNC(=O)[C@H](Cc1ccc(O)cc1)NC(C)=O)[C@@H](C)CC)[C@@H](C)O)[C@@H](C)CC)C(=O)N[C@@H](CC(C)C)C(N)=O` [PIP1-BP475] (Ac-YGIHTHKKL[dF]KKILKK(Butyryl)L-NH2), the “tR (min), HPLC retention time (method B)” value came out at 5.55 min.

`CCCC(=O)NCCCC[C@H](NC(=O)[C@H](CCCCN)NC(=O)[C@H](CC(C)C)NC(=O)[C@@H](NC(=O)[C@H](CCCCN)NC(=O)[C@H](CCCCN)NC(=O)[C@@H](Cc1ccccc1)NC(=O)[C@H](CC(C)C)NC(=O)[C@H](CCCCN)NC(=O)[C@H](CCCCN)NC(=O)[C@H](C)NC(=O)[C@@H](NC(=O)[C@H](CCC(N)=O)NC(=O)[C@H](CC(C)C)NC(=O)CNC(=O)[C@H](C)NC(=O)[C@H](C)NC(=O)[C@H](CC(=O)O)NC(=O)[C@H](CC(=O)O)NC(=O)[C@H](CCCCN)NC(=O)[C@H](C)NC(=O)[C@H](CO)NC(=O)[C@H](CC(N)=O)NC(=O)[C@@H](NC(=O)[C@H](CCCNC(=N)N)NC(C)=O)[C@@H](C)CC)[C@@H](C)CC)[C@@H](C)CC)C(=O)N[C@@H](CC(C)C)C(N)=O` [flg15-BP475] (Ac-RINSAKDDAAGLQIAKKL[dF]KKILKK(Butyryl)L-NH2): the “tR (min), HPLC retention time (method B)” value is reported as 6.79 min.
